Patent US20110003760A1, “ABNORMAL PROTEIN REMOVING METHOD” (priority 2005, published 2011)

Key:
[1] = tested on: carbonylated protein in three-dimensional human skin model TESTSKIN (LSE-high); experiment: Carbonylated protein in three-dimensional human skin model, Western blotting (DNPH); type: cell-based; details: for Relative photographic density (carbonylated protein): untreated without UV = 100%; for effect on accumulation of carbonylated protein: retinoic acid and retinol at 3 and 10 μM
Experimental: (§1) Three-dimensional human skin models are widely used in safety evaluation and effectiveness evaluation as a simulated model of human skin. In this test, TESTSKIN (LSE-high) (Toyobo Co., Ltd.) was used as a three-dimensional human skin model.
(§2) A culture medium was added to the outer well of TESTSKIN (LSE-high) and cultured for 24 hours. UVA and UVB were irradiated at 10 J/cm^2 and 100 mJ/cm^2, respectively. UVB was irradiated for 2 minutes at a UV intensity of […] using FL20S-E-30/DMR (Clinical Supply Co., Ltd.) to achieve a total irradiation dose of 100 mJ/cm^2. UV intensity was measured using a UV MONITOR MS-211-I (Eiko Instruments Co., Ltd.).
As a control group, three-dimensional human skin models not irradiated with UVA or UVB were also prepared.
(§3) Thereafter, the culture solution was changed and each agent was added by 100 μl onto the tissues in the assay ring, after which the medium was cultured for 36 hours. Thereafter, the tissues were collected and a tissue extraction solution (50 mM Tris-HCl (pH 7.5), 0.5% (Octylphenoxy) polyethoxyethanol (Sigma-Aldrich Corp.)) was added, and then the mixture was homogenized using a Teflon (registered trademark) homogenizer. The homogenized mixture was centrifuged for 30 minutes at 10,000×G to remove tissue fragments, and then dialyzed overnight in distilled water at 4° C. Thereafter, the dialyzed mixture was freeze-dried to remove water. A tissue extraction solution was added to obtain a ×20 concentrate, and this concentrate was used as a three-dimensional skin model extract sample.
In this test, 2,4-dinitrophenyl hydrazine (DNPH), which specifically bonds with the carbonyl group in the protein produced by oxidation damage, was used to label carbonylated protein, and then detection was performed using an anti-DNPH antibody that specifically bonds with DNPH.
The specific method is explained below. DNPH protein was detected from the protein in the sample by means of Western blotting using a DNPH kit (Oxi Blot™ Protein Oxidation Detection Kit; Chemicon International Inc.). Detection was performed by exposing PVDF membranes to light using a […] (ECL PLUS; Amarsham PLC), and an automatic developer (FPM100; FUJIFILM Medical Co., Ltd.) was used to transfer images. A densitometer (Molecular Dynamics Inc.) was then used to analyze the images to quantify the photographic density. For your information, protein in the sample was reduced and measured as deemed appropriate. In this case, 2-mercaptoethanol was used as a reducing agent and the mixture was heated for 5 minutes at 100° C. to sever the disulfide bond.
Based on the above results, it is clear that Bletilla striata extract and silybin suppress accumulation of carbonylated protein in a three-dimensional skin model in a manner dependent on the concentration. Accordingly, whether or not a combined use of Bletilla striata extract and silybin would synergistically suppress accumulation of carbonylated protein was evaluated. Also, whether or not a combined use of silybin and soybean saponin, a substance known to have an action to suppress accumulation of carbonylated protein, would synergistically suppress accumulation of carbonylated protein was evaluated. As a result, regardless of whether or not UV light was irradiated using silybin (3 μM) in combination with Bletilla striata extract (0.1%; final extract concentration of 0.001%), or using silybin (3 μM) in combination with soybean saponin (0.0005%), suppressed the accumulation of carbonylated protein synergistically compared to when a sample was treated with silybin (3 μM), Bletilla striata extract (0.1%; final extract concentration of 0.001%) or soybean saponin (0.0005%) alone, as far as accumulation of carbonylated protein in a three-dimensional skin model was concerned (FIG. 7 and Table 7; results of non-reduced protein).

[2] = tested on: trypsin-like proteasome activity in three-dimensional human skin model; experiment: Proteasome activity in three-dimensional human skin model; type: cell-based; details: for proteasome activity compared to the sample not given any treatment under UV irradiation (75%) / proteasome activity compared to the sample not given any treatment: FIG. 11; for proteasome activity compared to the sample not given any treatment: without UV irradiation; for effect on proteasome activity: retinoic acid and retinol at 3 and 10 μM
Experimental: as §1, §2, §3
Proteasome activity was measured using a known method (Hayashi, et al., Mechanisms of Aging and Development, Vol. 102, pp. 55-66, 1998) based on cell extract samples.
The specific method is as follows. For the matrix to measure trypsin-like proteasome activity, t-butyloxycarbonyl-L-leucyl-L-arginyl-L-arginyl-L-4-methyl-coumaryl-7-amide (Peptide Institute, Inc.) was used. A cell extract sample containing protein by an equivalent of 10 μg was added to 10.5 μl of a 100 μM matrix solution prepared with 100 mM Tris-HCl (pH 8.0), after which a cell extraction solution was added to a total volume of 50 μl. The obtained solution was treated for 30 minutes at 37° C., after which the fluorescence intensity of the separated 7-amine-4-methyl coumarin was measured at an excitation wavelength (Ex) of 380 nm and absorption waveform (Em) of 440 nm. The result was obtained for each sample type treated with each agent, as an “average ±standard error” calculated from the measured values of three samples.
Based on the above results, it is clear that Bletilla striata extract and silybin promote proteasome activity in a three-dimensional skin model in a manner dependent on the concentration. Accordingly, whether or not a combined use of Bletilla striata extract and silybin would synergistically promote proteasome activity was evaluated. Also, whether or not a combined use of silybin and soybean saponin, a substance known to have an action to promote proteasome activity, would synergistically promote proteasome activity was evaluated. As a result, regardless of whether or not UV light was irradiated, using silybin (3 μM) in combination with Bletilla striata extract (0.1%; final extract concentration of 0.001%), or using silybin (3 μM) in combination with soybean saponin (0.0005%), promoted proteasome activity synergistically compared to when a sample was treated with silybin (3 μM), Bletilla striata extract (0.1%; final extract concentration of 0.001%) or soybean saponin (0.0005%) alone, as far as promotion of proteasome activity in a three-dimensional skin model was concerned (FIG. 12).

CC1=C(/C=C/C(C)=C/C=C/C(C)=C/C(=O)O)C(C)(C)CCC1 [Retinoic acid, all-trans-retinoic acid]
amount of carbonylated protein compared to the sample not given any treatment under UV irradiation ([1]; non-reduced protein, 3 μM): little change
Relative photographic density (carbonylated protein) ([1]; non-reduced protein, treatment concentration 3 μM, UV (+)): 305%
Relative photographic density (carbonylated protein) ([1]; non-reduced protein, treatment concentration 3 μM, UV (−)): 110%
Relative photographic density (carbonylated protein) ([1]; non-reduced protein, treatment concentration 3 μM, UV (−), listed as retinoic acid): little change
amount of carbonylated protein compared to the sample not given any treatment under UV irradiation ([1]; reduced protein, 3 μM): little change
Relative photographic density (carbonylated protein) ([1]; reduced protein, treatment concentration 3 μM, UV (+)): 315%
Relative photographic density (carbonylated protein) ([1]; reduced protein, treatment concentration 3 μM, UV (−)): 105%
Relative photographic density (carbonylated protein) ([1]; reduced protein, treatment concentration 3 μM, UV (−), listed as retinoic acid): little change
effect on accumulation of carbonylated protein [1]: no effect
proteasome activity compared to the sample not given any treatment under UV irradiation (75%) ([2]; 3 μM): little change
proteasome activity compared to the sample not given any treatment ([2]; 3 μM): little change
effect on proteasome activity [2]: no effect

CC1=C(/C=C/C(C)=C/C=C/C(C)=C/CO)C(C)(C)CCC1 [Retinol, all-trans-retinol]
amount of carbonylated protein compared to the sample not given any treatment under UV irradiation ([1]; non-reduced protein, 10 μM): little change
Relative photographic density (carbonylated protein) ([1]; non-reduced protein, treatment concentration 10 μM, UV (+)): 315%
Relative photographic density (carbonylated protein) ([1]; non-reduced protein, treatment concentration 10 μM, UV (−)): 115%
Relative photographic density (carbonylated protein) ([1]; non-reduced protein, treatment concentration 10 μM, UV (−), listed as retinol): little change
amount of carbonylated protein compared to the sample not given any treatment under UV irradiation ([1]; reduced protein, 10 μM): little change
Relative photographic density (carbonylated protein) ([1]; reduced protein, treatment concentration 10 μM, UV (+)): 330%
Relative photographic density (carbonylated protein) ([1]; reduced protein, treatment concentration 10 μM, UV (−)): 110%
Relative photographic density (carbonylated protein) ([1]; reduced protein, treatment concentration 10 μM, UV (−), listed as retinol): little change
effect on accumulation of carbonylated protein [1]: no effect
proteasome activity compared to the sample not given any treatment under UV irradiation (75%) ([2]; 10 μM): little change
proteasome activity compared to the sample not given any treatment ([2]; 10 μM): little change
effect on proteasome activity [2]: no effect
